Assay results taken from patent US20250248979A1, “NOVEL GPX4 INHIBITORS AND USES THEREOF” (THE TRUSTEES OF COLUMBIA UNIVERSITY IN THE CITY OF NEW YORK, priority 2022, published 2025).
Where two headings read alike, the source gives them in different places.

How the values were obtained:
HepG2 cells = assay: Cellular dose response assay, HepG2; format: cell-based, human
Outline: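 Cells were seeded at 1500 per well, grown overnight, then treated in triplicate with 12-point 2-fold compound dilutions (0.4% DMSO final) for 48 h at 37 °C, 5% CO2. HT-1080 series were run with and without Fer-1. Viability was read by CellTiter-Glo luminescence.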

GPX4^U46C = molecular target: T1, GPX4^U46C (Homo sapiens, UniProt P36969, U73C); assay: Microscale thermophoresis (MST) binding; settings: for EC50: half maximal effective concentration, covalent mechanism
T1 construct: made in house; host or cells: E. coli BL21-Gold (DE3)
T1 sequence (P36969 1-170 isoform P36969-2 U46C): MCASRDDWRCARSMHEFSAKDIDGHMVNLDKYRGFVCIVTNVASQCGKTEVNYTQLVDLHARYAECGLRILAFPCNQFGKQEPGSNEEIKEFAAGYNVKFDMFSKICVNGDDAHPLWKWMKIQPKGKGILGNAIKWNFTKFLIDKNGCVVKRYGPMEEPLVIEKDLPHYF
Protocol: The bacterial expression vector pET-15b-His-tagged-c-GPX4^U46C was prepared as previously described (Yang et al. 2016). The C-terminal His-tagged GPX4U46C protein was expressed in E. coli and purified according to a protocol modified from Scheerer et al. 2007. First, pET-15b-His-tagged-c-GPX4^U46C was transformed into XL10-Gold (Agilent #200314) E. coli ultracompetent cells for plasmid DNA production and isolated using QIAprep Spin Miniprep Kit (Qiagen). For protein expression, pET-15b-His-tagged-c-GPX4^U46C was then transformed into BL21-Gold (DE3) E. coli competent cells (Agilent #230132) and plated on LB agar with 100 μg/mL ampicillin. A starter culture was inoculated in 7 mL of LB medium with 100 μg/mL ampicillin using a single colony and allowed to grow in a 37° C. shaker (225 rpm) for 16 hours. 3 mL of the starter culture was added to 1 L of LB medium with 100 μg/mL ampicillin, which was then incubated in a 37° C. shaker (225 rpm) to an OD600 of 0.9. At that point, the incubation temperature was reduced to 15° C. and the culture was allowed to equilibrate for 1 hour. Expression of the recombinant enzyme was induced by addition of isopropyl β-D-1-thiogalactopyranoside (IPTG, 1 mM final concentration) overnight for 12-15 hours shaking at 225 rpm and 15° C. The next morning, cells were harvested by centrifugation at 4000 rpm and 4° C. for 20 minutes. The cell pellet was then frozen at −80° C. for at least 1 hour or until lysis. To lyse the cells, the cell pellet was resuspended with 25 mL of chilled lysis buffer (100 mM Tris pH 8.0, 300 mM NaCl, 20 mM imidazole, 3 mM TCEP, and 2.5 mini tablets of complete Protease Inhibitor Cocktail (Roche-Sigma #11836170001)) then lysed using an Emulsiflex C3 high-pressure homogenizer. To remove cell debris, the lysate was subjected to centrifugation at 10000 rpm and 4° C. for 20 minutes. The supernatant was centrifuged once more at the same conditions, then the clarified lysate was applied onto a 5-mL HisTrap HP column (Cytiva #17-5248-01), washed with 90% Buffer A (100 mM Tris pH 8.0, 300 mM NaCl, 5% glycerol, 3 mM TCEP) 10% Buffer B (Buffer A with 500 mM imidazole), then eluted with a continuous gradient (10-100% Buffer B). The protein was concentrated using Amicon Ultra-15 centrifugal filter units with a 10 kDa molecule weight cutoff (EMD Millipore #UFC901024) then further purified by FPLC on a size exclusion HiLoad Superdex 200 column (Cytiva) in crystallization buffer (20 mM Tris pH 8.0, 300 mM NaCl, 3 mM TCEP). The fractions containing 90-95% pure GPX4 protein, as evaluated by SDS-PAGE, were pooled and concentrated using the same Amicon centrifugal filter units as above to 5 mg/mL. Concentration was determined by Nanodrop. Protein was aliquoted into Eppendorf tubes, flash frozen using liquid nitrogen, and stored at −80° C. until use.
MST experiments were conducted using a Monolith NT.115 (Nanotemper Technologies) according to manufacturer instructions. To label the protein, 90 μL of 200 nM GPX4^U46C was combined with 90 μL of 100 nM RED-tris-NTA dye diluted in PBS buffer with 0.05% Tween 20 (PBST buffer). The mixture was incubated for 30 minutes at room temperature, followed by centrifugation for 10 minutes at 4° C. and 15,000×g. To assess binding of the compounds, a 16-point 2-fold dilution series in PBST buffer was prepared and mixed in a 1:1 ratio with the labeled protein solution for a final volume of 20 μL. The reaction mixture was loaded into standard treated capillary tubes and analyzed with the Monolith NT.115 at 40% LED power and 40% MST power with a laser-on time of 5 seconds. The data were analyzed in MO.Affinity Analysis v2.3 software.

HT-1080 cells = assay: Cellular dose response assay, HT-1080 with and without Fer-1; format: cell-based, human
Outline: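 1500 cells/well, o/n; 12-pt 2-fold dilns, ±Fer-1 (HT-1080), 0.4% DMSO, n=3 technical; 48 h, 37 °C/5% CO2; CellTiter-Glo lum. Huh7, HLF, HT-1080 grown in DMEM/10% HI-FBS; SK-HEP-1 in EMEM/10% HI-FBS.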

HLF cells = assay: Cellular dose response assay, HLF; format: cell-based, human
Text: (§1) HT-1080 (human [Homo sapiens] […] fibrosarcoma), A-673 (human [Homo sapiens] […] Ewing's sarcoma), and SK-HEP-1 (human [Homo sapiens] […] hepatic adenocarcinoma), cells were obtained from ATCC. Huh7 (human [Homo sapiens] […] hepatocellular carcinoma), HLF (human [Homo sapiens] […] hepatocellular carcinoma), HepG2 (human [Homo sapiens] […] hepatocellular carcinoma), cells were obtained from the Cancer Cell Bank at Columbia University Irving Medical Center. HT-1080, A-673, Huh-7, and HLF cells were grown in Dulbecco's Modified Eagle Medium (DMEM) supplemented with 10% heat inactivated fetal bovine serum (HI-FBS), 1% non-essential amino acids, and 1% penicillin streptomycin. HepG2 and SK-HEP-1 cells were grown in Eagle's Minimum Essential Medium (EMEM) supplemented with 10% HI-FBS, and 1% penicillin-streptomycin. All cells were cultured at 37° C. and 5% CO2.
(§2) HT-1080, HepG2, Huh7, HLF, and SK-HEP-1 cells were seeded into opaque white 384-well plates at 1500 cells per well then incubated at 37° C. with 5% CO2 overnight. The next day, compounds of interest were dissolved in DMSO and 12-point 2-fold dilution series were prepared with and without Fer-1. Cells were treated in triplicate (final DMSO concentration of 0.4% in all wells, including DMSO-only control wells) and incubated for a further 48 hours at 37° C. and 5% CO2. Cell viability was evaluated using CellTiter-Glo (Promega G7573) and luminescence was recorded on a Victor 5 plate reader. Data were analyzed in GraphPad Prism 9 and error bars represent standard deviation values for three technical replicates in a representative experiment.

SK-HEP-1 cells = assay: Cellular dose response assay, SK-HEP-1; format: cell-based, human
Text: as §1, §2

[1] = compounds alone, Table 4, read-out: IC50 (uM) HLF^a
[2] = with fer-1, Table 4, read-out: IC50 (uM) HLF^b
[3] = compounds alone, Table 4, read-out: IC50 (uM) HEPG2^a
[4] = with fer-1, Table 4, read-out: IC50 (uM) HEPG2^b
[5] = compounds alone, Table 4, read-out: IC50 (uM) SKHEP1^a
[6] = with fer-1, Table 4, read-out: IC50 (uM) SKHEP1^b
[7] = compounds alone, Table 4, read-out: IC50 (uM) HT1080^a
[8] = with fer-1, Table 4, read-out: IC50 (uM) HT1080^b
[9] = with Fer-1, Table 10, read-out: IC50 (μM) HT1080 + Fer-1

Row | SMILES | Kd (GPX4^U46C; MST) [µM] | EC50 (GPX4^U46C) [µM] | IC50 (HLF cells; [1]) [µM] | IC50 (HLF cells; [2]) [µM] | IC50 (HepG2 cells; [3]) [µM] | IC50 (HepG2 cells; [4]) [µM] | IC50 (SK-HEP-1 cells; [5]) [µM] | IC50 (SK-HEP-1 cells; [6]) [µM] | IC50 (HT-1080 cells; [7]) [µM] | IC50 (HT-1080 cells; [8]) [µM] | other results
1 | COc1cccc2[nH]c(C(=O)n3ccnc3)cc12 [LOC1886, reference compound] | 263 | 263 |  |  |  |  |  |  |  |  | IC50 (HepG2 cells; Homo sapiens, HepG2, compounds alone, read-out: IC50 (μM) HEPG2^a): 88.6 µM; IC50 (HepG2 cells; Homo sapiens, HepG2, compounds and fer-1 1.0 μM, read-out: IC50 (μM) HEPG2^b): 29.1 µM; IC50 (HT-1080 cells; Homo sapiens, HT-1080, compounds alone, read-out: IC50 (μM) HT1080^a): 163 µM; IC50 (HT-1080 cells; Homo sapiens, HT-1080, compounds and fer-1 1.0 μM, read-out: IC50 (μM) HT1080^b): 109 µM; ferroptosis induction / potency in HT-1080 cells, result in words (HT-1080 cells; RSL3 as control): no fer-1 rescue was observed
2 | CC(C)(COC(=O)CCl)NC(=O)c1cc2ccccc2[nH]1 [QW-147] |  | 2.4 | 98.7 | 113 | 69 | 104 | 24.1 | 52.8 | 34.8 | 37.2 | 
3 | CC(C)(COC(=O)CCl)NC(=O)c1cc2cc([N+](=O)[O-])ccc2[nH]1 [QW-148] |  | 39.7 | 16.6 | 28.7 | > 400 | > 400 | 10.1 | 121 | 37.7 | 95.9 | 
4 | COc1ccc2cc(C(=O)NC(C)(C)COC(=O)CCl)[nH]c2c1 [QW-152] |  | 0.678 | 30 | 278 | 81.4 | 291 | 24.7 | 340 | 55.5 | 167 | 
5 | CC(C)(COC(=O)CCl)NC(=O)c1cc2ccc(Br)cc2[nH]1 [QW-156] |  | 0.218 | 13.4 | 34.3 | 25.4 | 51.5 | 13.7 | 62.8 | 22.9 | 33.1 | 
6 | Cn1nc(C(=O)NC(C)(C)COC(=O)CCl)c2ccc(Br)cc21 [QW-314] | 5.8 |  |  |  |  |  |  |  |  |  | GI50 (HLF cells; Homo sapiens, HLF): ~1 µM; IC50 (HLF cells; Homo sapiens, HLF, read-out: IC50 (uM) HLF^a): 0.13 µM; IC50 (HLF cells; Homo sapiens, HLF, read-out: IC50 (uM) HLF^b): 80 µM; IC50 (HepG2 cells; Homo sapiens, HepG2, read-out: IC50 (uM) HEPG2^a): 11.3 µM; IC50 (HepG2 cells; Homo sapiens, HepG2, read-out: IC50 (uM) HEPG2^b): 222 µM; IC50 (SK-HEP-1 cells; Homo sapiens, SK-HEP1, read-out: IC50 (uM) SKHEP1^a): 10.8 µM; IC50 (SK-HEP-1 cells; Homo sapiens, SK-HEP1, read-out: IC50 (uM) SKHEP1^b): 106 µM; IC50 (HT-1080 cells; Homo sapiens, HT-1080, read-out: IC50 (uM) HT1080^a): 1.9 µM; IC50 (HT-1080 cells; Homo sapiens, HT-1080, read-out: IC50 (uM) HT1080^b): 77.4 µM
7 | COc1ccc(-c2ccc3c(C(=O)NC(C)(C)COC(=O)CCl)nn(C)c3c2)cc1Cl [QW-446] | 0.485 |  |  |  |  |  |  |  |  |  | times more potent than RSL3 (binding affinity) (GPX4^U46C; MST, relative to RSL3): 15 times; IC50 (HT-1080 cells; HT1080 + Fer-1, read-out: IC50 (uM) HT1080 + Fer-1): 30.3 µM; ferroptosis selectivity (HT-1080 cells; HT-1080): 69; Selectivity (HT-1080 cells; ferroptosis selectivity, HT1080 + Fer-1 vs HT1080): 69; IC50 (HT-1080 cells; read-out: IC50 HT1080): 0.44 µM
8 | CC(C)(COC(=O)CCl)NC(=O)c1nn(Cc2cc(Cl)cc(Cl)c2)c2cc(-c3ccc(N4CCOCC4)c(Cl)c3)ccc12 [QW-852] |  |  |  |  |  |  |  |  |  |  | Selectivity (HT-1080 cells): >1000; IC50 (HT-1080 cells; read-out: IC50 against HT1080 cell lines): 0.0395 µM; IC50 (HT-1080 cells; [9]): > 40 µM
9 | COC(=O)c1ccc([C@@H]2c3[nH]c4ccccc4c3C[C@@H](C(=O)OC)N2C(=O)CCl)cc1 [RSL3, reference compound] |  |  | 0.25 | > 40 | 5.4 | 32.2 | 0.05 | > 40 | 0.044 | 4.6 | IC50 (HLF cells; compounds alone, Table 7, read-out: IC50 (uM) HLF^a): 0.25 µM; IC50 (HLF cells; with fer-1, Table 7, read-out: IC50 (uM) HLF^b): > 40 µM; IC50 (HepG2 cells; compounds alone, Table 7, read-out: IC50 (uM) HEPG2^a): 5.4 µM; IC50 (HepG2 cells; compounds alone, read-out: IC50 (μM) HEPG2^a): 5.4 µM; IC50 (HepG2 cells; compounds and fer-1 1.0 μM, read-out: IC50 (μM) HEPG2^b): 32.2 µM; IC50 (HepG2 cells; with fer-1, Table 7, read-out: IC50 (uM) HEPG2^b): 32.2 µM; IC50 (SK-HEP-1 cells; compounds alone, Table 7, read-out: IC50 (uM) SKHEP1^a): 0.05 µM; IC50 (SK-HEP-1 cells; with fer-1, Table 7, read-out: IC50 (uM) SKHEP1^b): > 40 µM; Selectivity (HT-1080 cells): 103.6; IC50 (HT-1080 cells; compounds alone, Table 7, read-out: IC50 (uM) HT1080^a): 0.044 µM; IC50 (HT-1080 cells; compounds alone, read-out: IC50 (μM) HT1080^a): 0.044 µM; IC50 (HT-1080 cells; compounds and fer-1 1.0 μM, read-out: IC50 (μM) HT1080^b): 4.6 µM; IC50 (HT-1080 cells; [9]): 4.6 µM; IC50 (HT-1080 cells; with fer-1, Table 7, read-out: IC50 (uM) HT1080^b): 4.6 µM; IC50 (HT-1080 cells; without Fer-1, Table 10, read-out: IC50 HT1080): 0.0444 µM
